# Data from PubChem BioAssay (NCI).
# Values joined by “and” are separate entries in the source; they are usually repeats but may differ in a detail not shown here. Equal values may be shown once.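 The compound was tested at five concentrations on cells cultured in 96-well plates, with a 48-hour exposure period. GI50 is the concentration that inhibits growth by half. The concentration for full growth arrest is given as TGI.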
# Columns and labels:
# Assay in all cases: inhibition of tumour cell growth, NCI panel, 48 h
# [1] = system: SK-MEL-2 melanoma
# [2] = system: OVCAR-8 ovarian
# [3] = system: U251 CNS
# [4] = system: COLO 205 colon
# [5] = system: HCC-2998 colon
# [6] = system: IGROV1 ovarian
# [7] = system: K-562 leukemia
# [8] = system: HCT-116 colon
# [9] = system: TK-10 renal
# [10] = system: T-47D breast
# [11] = system: NCI/ADR-RES ovarian
# [12] = system: RXF 393 renal
# [13] = system: NCI-H522 lung
# [14] = system: BT-549 breast
SMILES,TGI [1] [µM],TGI [2] [µM],TGI [3] [µM],TGI [4] [µM],TGI [5] [µM],TGI [6] [µM],TGI [7] [µM],TGI [8] [µM],TGI [9] [µM],TGI [10] [µM],TGI [11] [µM],TGI [12] [µM],TGI [13] [µM],TGI [14] [µM],GI50 [1],GI50 [5] [µM],GI50 [6],GI50 [8],GI50 [10] [µM],GI50 [11]
CSC(=S)Nc1cccc(C)n1,> 100,> 100,> 100,> 100,> 100,> 100,> 100,> 100,> 100,> 100,> 100,> 100,> 100,–,–,–,–,–,–,–
NC(=O)C(=O)C1CCC2=C(Sc3ccccc3N2)C1=O (stereo unspecified),> 100,> 100,> 100,> 100,> 100,> 100,> 100,> 100,> 100,–,–,> 100,> 100,–,–,–,–,–,–,–
NS(=O)(=O)c1nnc(NS(=O)(=O)C(F)(F)F)s1,> 100,> 100,> 100,> 100,> 100,–,> 100,> 100,> 100,–,> 100,> 100,> 100,> 100,–,–,–,–,–,–
CC(C)=CCN1CC(C)C(=O)Nc2ccccc21 (stereo unspecified),> 100,> 100,> 100,> 100,> 100,> 100,> 100,> 100,> 100,> 100,–,> 100,> 100,> 100,–,–,–,–,–,–
CCC1OC2C(CC=C(C)C)=C3OC(C)(O)C(C)(CC)C(OC(C)=O)C3=C3OC(=O)C=C1C32 (stereo unspecified),41.8,> 100,> 100,70.9,50.6,69.6,> 100,70,> 100,> 100,83.2,–,38.1,42.9,–,–,–,–,–,–
CN(C)C(=NCc1ccccc1)NC#N,> 100,> 100,> 100,> 100,> 100,> 100,–,> 100,> 100,–,–,–,> 100,–,–,–,–,–,–,–
CC(C)(C)C1=CC(C)(n2[nH]c(=O)n(-c3ccccc3)c2=O)C=C(C(C)(C)C)C1=O,> 100,> 100,> 100,> 100,> 100,–,> 100,> 100,> 100,> 100,> 100,–,> 100,> 100,–,–,–,–,–,–
C=C1CC(c2ccc(OCCCN3C(=O)c4ccccc4C3=O)cc2)OC1=O (stereo unspecified),4.98,9.35,10.7,6.37,16.8,4.57,3.16,4.89,14.5,> 34.7,> 95.1,3.65,1.83,–,–,–,–,–,–,–
COC(=O)c1ccc(S)c(S(=O)(=O)Nc2n[nH]c(N)n2)c1,> 100,> 100,> 100,> 100,–,> 100,> 100,> 100,> 100,> 100,> 100,–,> 100,> 100,–,–,–,–,–,–
COc1ccc2c(c1)c1c(n2CCN(C)C)-c2ccccc2CC1,30.3,31.1,27.2,27.2,32.2,27,29.8,28.7,29.8,31.5,31.5,–,32.9,30.7,–,–,–,–,–,–
CCOP1(=O)C=C(C)C(Cl)=C(C)C1 (stereo unspecified),50.4,> 100,63.2,24.4,> 100,> 100,90.5,41.4,96.7,–,–,77.2,27.8,–,–,–,–,–,–,–
C/C(=C\CBr)CCC(Br)C(C)(C)Cl (stereo unspecified),> 100,> 100,> 100,> 100,–,> 100,> 100,> 100,> 100,–,–,> 100,> 100,–,–,–,–,–,–,–
O=[N+]([O-])/C(C(Cl)=C(Cl)Cl)=C(/Cl)SCc1ccccc1,47.4,3.04,25.1,4.49,43.5,35.7,3.36,3.88,18.9,39.2,3.62,9.35,7.8,–,–,–,–,–,–,–
CCN(CC)c1ccc2c(c1)Oc1ccc(N(CC)CC)cc1C21Oc2ccccc2-c2c1c1ccccc1n2CC (stereo unspecified),–,> 100,> 100,> 100,> 100,–,> 100,> 100,–,–,–,> 100,5.06,–,–,–,–,–,–,–
COC(=O)/C=C(\CC(=O)OC)n1nnnc1[C@@H]1C[C@H](COC(c2ccccc2)(c2ccccc2)c2ccccc2)[C@H]2OC(C)(C)O[C@H]21,> 100,> 100,> 100,> 100,–,> 100,> 100,> 100,> 100,> 100,–,> 100,> 100,–,–,–,–,–,–,–
COc1ccc(/C(Br)=C2\OC(=O)c3ccccc32)cc1,> 10,> 10,> 10,> 10,> 10,> 10,> 10,> 10,> 10,> 10,> 10,> 10,> 10,–,–,–,–,–,–,–
CC1(C)CNCC(C)(OCc2ccccc2)C(=O)NC(C)(C)CNCC(C)(OCc2ccccc2)C(=O)N1 (stereo unspecified),> 10,> 10,> 10,–,> 10,> 10,> 10,> 10,> 10,> 10,–,> 10,–,> 10,–,–,–,–,–,–
COc1ccc(OC)c(CNc2ccc(C(=O)O)cc2)c1,> 100,> 100,> 100,> 100,> 100,> 100,> 100,> 100,> 100,–,> 100,–,> 100,> 100,–,–,–,–,–,–

SMILES,TGI [1] [µM],TGI [2] [µM],TGI [3] [µM],TGI [4] [µM],TGI [5] [µM],TGI [6] [µM],TGI [7] [µM],TGI [8] [µM],TGI [9] [µM],TGI [10] [µM],TGI [11] [µM],TGI [12] [µM],TGI [13] [µM],TGI [14] [µM],GI50 [1],GI50 [5] [µM],GI50 [6],GI50 [8],GI50 [10] [µM],GI50 [11]
C/C=C/C#CC#C/C=C/C=C/C(O)CCO (stereo unspecified),> 23.1,> 23.1,> 23.1,> 23.1,> 23.1,> 23.1,> 23.1,> 23.1,> 23.1,–,–,> 23.1,> 23.1,–,–,–,–,–,–,–
O=c1[nH]nc(Cc2ccccc2)n1C1CCCC1,–,> 100,> 100,> 100,> 100,> 100,> 100,> 100,> 100,> 100,> 100,> 100,> 100,–,–,–,–,–,–,–
NNC(=O)c1c(-c2cccnc2)cnc2ccccc12,> 100,> 100,> 100,> 100,> 100,> 100,> 100,> 100,> 100,–,> 100,> 100,> 100,> 100,–,–,–,–,–,–
[O-]c1c2cc(-[n+]3c(-c4ccccc4)cc(-c4ccccc4)cc3-c3ccccc3)cc1COCCOCCOCCOCCOC2,44,> 100,> 100,33.5,> 100,–,> 100,> 100,> 100,–,–,–,> 100,–,–,–,–,–,–,–
COc1ccc(Oc2cccc(C3C4C(=O)N(c5ccc(C)c(Cl)c5)C(=O)C4ON3C(C(N)=O)c3ccccc3)c2)cc1 (stereo unspecified),38.3,> 50,> 50,42.6,–,> 50,> 50,45.2,> 50,33,–,30.1,32.6,–,–,–,–,–,–,–
O=[N+]([O-])c1ccc(OC2CC3C4C=CC3C2C4)c([N+](=O)[O-])c1 (stereo unspecified),> 100,> 100,> 100,> 100,> 100,> 100,> 100,> 100,> 100,> 100,> 100,> 100,> 100,–,90.4 µM and > 31.6 µM,> 100,91.5 µM and > 31.6 µM,66.2 µM and > 31.6 µM,> 100,76.4 µM and > 31.6 µM
[N-]=[N+]=NI1OC(=O)c2ccccc21,> 100,> 100,> 100,> 100,> 100,> 100,> 100,> 100,> 100,> 100,> 100,> 100,40.6,–,–,–,–,–,–,–
Nc1c([N+](=O)[O-])nc(Cl)c2nncn12,> 100,> 100,> 100,> 65,> 100,> 100,> 100,> 63.9,> 100,–,–,> 100,> 100,–,–,–,–,–,–,–
Cc1ccc(NC(=O)c2cc(S(=O)(=O)Nc3n[nH]c(=O)[nH]3)c(SSc3cc(Cl)c(C(=O)Nc4ccc(C)cc4)cc3S(=O)(=O)Nc3n[nH]c(=O)[nH]3)cc2Cl)cc1,> 100,> 100,> 100,> 100,> 100,> 100,> 100,> 100,> 100,–,> 100,–,> 100,> 100,–,–,–,–,–,–
CC1=NN(c2nc(N)nc(/C(C#N)=C\c3csc([N+](=O)[O-])c3)n2)C(C)(C)C1,81,64.7,39.4,–,> 100,> 100,> 100,> 100,95.5,56.9,70.3,44.7,50.1,–,–,–,–,–,–,–
CC1=C(O)C2=C(C(=O)C1=O)[C@@H](C)CC[C@@H]2[C@@H](C)C/C=C/C(C)(C)O,> 100,> 100,> 100,> 100,–,> 100,> 100,> 100,–,78.2,> 100,–,58.8,–,–,–,–,–,–,–
COc1ccc(/C=N/n2c(C)n[nH]c2=O)c(OC)c1,> 100,> 100,> 100,> 100,> 100,–,> 100,> 100,–,> 100,> 100,–,–,> 100,–,–,–,–,–,–
NC(=O)C(=CNC(=S)Nc1ccccc1)C(N)=O,> 100,> 100,> 100,> 100,> 100,> 100,> 100,> 100,–,> 100,> 100,> 100,> 100,–,–,–,–,–,–,–
CC(=O)C1=CN=C2C(=O)N(c3ccccc3)N(C)C12C (stereo unspecified),> 100,> 100,> 100,> 100,> 100,> 100,> 100,> 100,> 100,–,> 100,> 100,> 100,> 100,–,–,–,–,–,–
Oc1[nH]c2ccccc2c1N=NC(=S)Nc1ccccc1Cl,64.8,17.9,55,> 100,> 100,29.8,81.4,11.8,10.3,> 100,3.48,31.4,> 100,–,–,–,–,–,–,–
COc1ccc(OC)c(N(CN2C(=O)CCC2C(=O)O)C(C)=O)c1 (stereo unspecified),> 100,> 100,> 100,> 100,–,> 100,> 100,> 100,> 100,> 100,> 100,–,> 100,–,–,–,–,–,–,–
C[C@]12C[C@@H](OC(=O)[C@]1(C)O)[C@@H]([C@]1(O)CC[C@H]3[C@@H]4C[C@H]5O[C@]56C[C@H]5O[C@H]5C(=O)[C@]6(C)[C@H]4CC[C@@]31C)C2,> 50,> 50,> 50,> 50,> 50,> 50,> 50,> 50,> 50,> 50,> 50,> 50,> 50,–,–,–,–,–,–,–
O=C(CCC1C(=O)NC(=S)NC1=O)c1ccc2ccccc2c1,> 100,> 100,> 100,> 100,> 100,> 100,> 100,> 100,> 100,–,–,> 100,31.1,–,–,–,–,–,–,–
